Laboratory results reported in patent US20020137929A1, “1 - (3-heterocyclylphenyl) isothiourea, -isourea, -guanidine and -amidine herbicidal agents” (Intellectual Property Department, BASF Aktiengesellschaft, priority 1998, published 2002).

How the values were obtained:
[1] = tested on: TRZAWR (Wheat, Winter, cv Riband); test: Postemergence herbicidal evaluation; assay type: in vivo, Triticum aestivum; conditions: postemergence
In short: (§1)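 ~2-wk seedlings; postemergence spray, 40 psi; vehicle 1:1 acetone:water + 0.5% Tween 20; rate ≈0.0156–0.500 kg/ha; greenhouse hold; scored 4–5 wk after treatment, 0–9 scale vs control; repeat tests averaged.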

CASOB (Sicklepod) = test: Postemergence herbicidal evaluation; assay type: in vivo, Cassia obtusifolia; conditions: postemergence
In short: as §1

[2] = tested on: SAGPY (Arrowhead (Pygmaea)); test: Postemergence weed control under flooded paddy conditions; assay type: in vivo, Sagittaria pygmaea; conditions: postemergence weeds, rated 3 to 4 weeks after treatment
In short: (§2)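 Injury ratings (0–9 scale covering stand, vigor, malformation, size, chlorosis and overall appearance versus control) were made three to four weeks after treatment. Test material, about 0.0313 to 0.500 kg/ha a.i. in 50/50 v/v aqueous/acetone, was added to flood water 1.5 to 3 cm deep over 3 to 5 cm weeds and 1.5 to 2.5 leaf rice.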

CYPSE (Flatsedge) = test: Preemergence weed control under flooded paddy conditions; assay type: in vivo, Cyperus serotinus; conditions: rated 3-4 weeks after treatment
In short: (§3)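 Greenhouse paddy assay. Acetone/water (50/50 v/v) solutions dosed into flood water, equivalent to about 0.0313 to 0.500 kg/ha active ingredient, over seeds planted 0.5 cm deep in silt loam. Score: 0-9 visual, based on stand, vigor, malformation, size and chlorosis, 3 to 4 weeks after treatment.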

[3] = tested on: ECHORC (Watergrass (Calif.)); test: as above; assay type: in vivo, Echinochloa oryzoides; conditions: rated 3-4 weeks after treatment
In short: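 First, seeds or propagules go into the top 0.5 cm of silt loam; next, water is held 1.5 to 3 cm over the soil; then compound (50/50 acetone/water) is pipetted into it at about 0.0313 to 0.500 kg/ha; finally plants are rated visually 0-9 after three to four weeks.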

GALAP (Galium) [4] = test: Preemergence herbicidal evaluation; assay type: in vivo, Galium aparine; conditions: preemergence, rated 4-5 weeks after treatment, 0-9 scale
In short: (§4)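 Steps: mix seeds into potting soil; plant atop ~1 inch soil; spray compound in aqueous acetone (~0.0156-0.500 kg/ha equivalent); maintain in greenhouse with watering; rate visually 0-9 versus control at 4-5 weeks.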

AMBEL (Ragweed, Common) = test: Postemergence herbicidal evaluation; assay type: in vivo, Ambrosia artemisifolia; conditions: postemergence
In short: as §1

[5] = tested on: ECHORC (Watergrass (Calif.)); test: Postemergence weed control under flooded paddy conditions; assay type: in vivo, Echinochloa oryzoides; conditions: postemergence weeds, rated 3 to 4 weeks after treatment
In short: as §2

[6] = tested on: SAGPY (Arrowhead (Pygmaea)); test: Preemergence weed control under flooded paddy conditions; assay type: in vivo, Sagittaria pygmaea; conditions: rated 3-4 weeks after treatment
In short: as §3

[7] = tested on: GLXMAW (Soybean, Williams); test: Postemergence herbicidal evaluation; assay type: in vivo, Glycine max, (L.) Merr. cv Williams; conditions: postemergence
In short: as §1

ORYSAT (Rice, Tebonnet) = test: Preemergence herbicidal evaluation; assay type: in vivo, Oryza sativa, (L.) Tebonnet; conditions: preemergence, rated 4-5 weeks after treatment, 0-9 scale
In short: as §4

MOOVA (Monochoria) = test: Preemergence weed control under flooded paddy conditions; assay type: in vivo, Monochoria vaginalis; conditions: rated 3-4 weeks after treatment
In short: as §3

SETVI (Foxtail, Green) = test: Preemergence herbicidal evaluation; assay type: in vivo, Setaria viridis; conditions: preemergence, rated 4-5 weeks after treatment, 0-9 scale
In short: as §4

GALAP (Galium) [8] = test: Postemergence herbicidal evaluation; assay type: in vivo, Galium aparine; conditions: postemergence
In short: as §1

SMILES: C=CCN1C(=O)C(CC(N)=O)SC1=Nc1cc(-n2c(=O)cc(C(F)(F)F)n(C)c2=O)c(F)cc1Cl (centres unmarked) [Compound 99, 3-Allyl-2-{{2-chloro-5-[3,6-dihydro-3-methyl-2,6-dioxo-4-(trifluoromethyl)-1(2H)-pyrimidinyl]-4-fluorophenyl}imino}-4-oxo-5-thiazolidineacetamide]
- herbicidal rating TRZAWR ([1]; rate 0.0156 kg/ha): 4.0
- herbicidal rating TRZAWR ([1]; rate 0.0313 kg/ha): 4.5
- TRZAWR herbicidal rating ([1]; rate 0.0625 kg/ha): 5.5
- TRZAWR herbicidal rating ([1]; rate 0.1250 kg/ha): 6.5
- herbicidal rating CASOB (CASOB (Sicklepod); rate 0.0156 kg/ha): 4.0
- herbicidal rating CASOB (CASOB (Sicklepod); rate 0.0313 kg/ha): 7.0
- CASOB herbicidal rating (CASOB (Sicklepod); rate 0.0625 kg/ha): 8.0
- CASOB herbicidal rating (CASOB (Sicklepod); rate 0.1250 kg/ha): 9.0
- Herbicidal rating SAGPY ([2]; Rate 0.0313 kg/ha): 0.0
- Herbicidal rating SAGPY ([2]; Rate 0.0625 kg/ha): 0.0
- Herbicidal rating SAGPY ([2]; Rate 0.1250 kg/ha): 3.0
- Herbicidal rating SAGPY ([2]; Rate 0.2500 kg/ha): 4.0
- Herbicidal rating SAGPY ([2]; Rate 0.5000 kg/ha): 4.0
- CYPSE herbicidal effect rating (CYPSE (Flatsedge); 0.0313 kg/ha): 0.0
- CYPSE herbicidal effect rating (CYPSE (Flatsedge); 0.0625 kg/ha): 0.0
- CYPSE herbicidal effect rating (CYPSE (Flatsedge); 0.1250 kg/ha): 0.0
- CYPSE herbicidal effect rating (CYPSE (Flatsedge); 0.2500 kg/ha): 0.0
- CYPSE herbicidal effect rating (CYPSE (Flatsedge); 0.5000 kg/ha): 0.0
- ECHORC herbicidal effect rating ([3]; 0.0313 kg/ha): 0.0
- ECHORC herbicidal effect rating ([3]; 0.0625 kg/ha): 0.0
- ECHORC herbicidal effect rating ([3]; 0.1250 kg/ha): 0.0
- ECHORC herbicidal effect rating ([3]; 0.2500 kg/ha): 0.0
- ECHORC herbicidal effect rating ([3]; 0.5000 kg/ha): 4.0
- GALAP rating (GALAP (Galium) [4]; 0.0156 kg/ha): 0.0
- GALAP rating (GALAP (Galium) [4]; 0.0313 kg/ha): 0.0
- GALAP rating (GALAP (Galium) [4]; 0.0625 kg/ha): 1.0
- GALAP rating (GALAP (Galium) [4]; 0.1250 kg/ha): 7.0
- GALAP rating (GALAP (Galium) [4]; 0.2500 kg/ha): 9.0
- GALAP rating (GALAP (Galium) [4]; 0.5000 kg/ha): 7.0
- herbicidal rating AMBEL (AMBEL (Ragweed, Common); rate 0.0156 kg/ha): 9.0
- herbicidal rating AMBEL (AMBEL (Ragweed, Common); rate 0.0313 kg/ha): 9.0
- AMBEL herbicidal rating (AMBEL (Ragweed, Common); rate 0.0625 kg/ha): 9.0
- AMBEL herbicidal rating (AMBEL (Ragweed, Common); rate 0.1250 kg/ha): 9.0
- Herbicidal rating ECHORC ([5]; Rate 0.0313 kg/ha): 0.0
- Herbicidal rating ECHORC ([5]; Rate 0.0625 kg/ha): 0.0
- Herbicidal rating ECHORC ([5]; Rate 0.1250 kg/ha): 0.0
- Herbicidal rating ECHORC ([5]; Rate 0.2500 kg/ha): 0.0
- Herbicidal rating ECHORC ([5]; Rate 0.5000 kg/ha): 4.0
- SAGPY herbicidal effect rating ([6]; 0.0313 kg/ha): 0.0
- SAGPY herbicidal effect rating ([6]; 0.0625 kg/ha): 0.0
- SAGPY herbicidal effect rating ([6]; 0.1250 kg/ha): 3.0
- SAGPY herbicidal effect rating ([6]; 0.2500 kg/ha): 4.0
- SAGPY herbicidal effect rating ([6]; 0.5000 kg/ha): 4.0
- herbicidal rating GLXMAW ([7]; rate 0.0156 kg/ha): 6.5
- herbicidal rating GLXMAW ([7]; rate 0.0313 kg/ha): 7.5
- GLXMAW herbicidal rating ([7]; rate 0.0625 kg/ha): 8.0
- GLXMAW herbicidal rating ([7]; rate 0.1250 kg/ha): 8.0
- ORYSAT rating (ORYSAT (Rice, Tebonnet); 0.0156 kg/ha): 0.0
- ORYSAT rating (ORYSAT (Rice, Tebonnet); 0.0313 kg/ha): 0.0
- ORYSAT rating (ORYSAT (Rice, Tebonnet); 0.0625 kg/ha): 1.0
- ORYSAT rating (ORYSAT (Rice, Tebonnet); 0.1250 kg/ha): 1.0
- ORYSAT rating (ORYSAT (Rice, Tebonnet); 0.2500 kg/ha): 4.0
- ORYSAT rating (ORYSAT (Rice, Tebonnet); 0.5000 kg/ha): 4.0
- MOOVA herbicidal effect rating (MOOVA (Monochoria); 0.0313 kg/ha): 9.0
- MOOVA herbicidal effect rating (MOOVA (Monochoria); 0.0625 kg/ha): 9.0
- MOOVA herbicidal effect rating (MOOVA (Monochoria); 0.1250 kg/ha): 9.0
- MOOVA herbicidal effect rating (MOOVA (Monochoria); 0.2500 kg/ha): 9.0
- MOOVA herbicidal effect rating (MOOVA (Monochoria); 0.5000 kg/ha): 9.0
- SETVI rating (SETVI (Foxtail, Green); 0.0156 kg/ha): 0.0
- SETVI rating (SETVI (Foxtail, Green); 0.0313 kg/ha): 1.0
- SETVI rating (SETVI (Foxtail, Green); 0.0625 kg/ha): 1.0
- SETVI rating (SETVI (Foxtail, Green); 0.1250 kg/ha): 6.0
- SETVI rating (SETVI (Foxtail, Green); 0.2500 kg/ha): 7.0
- SETVI rating (SETVI (Foxtail, Green); 0.5000 kg/ha): 9.0
- herbicidal rating GALAP (GALAP (Galium) [8]; rate 0.0156 kg/ha): 3.0
- herbicidal rating GALAP (GALAP (Galium) [8]; rate 0.0313 kg/ha): 6.0
- GALAP herbicidal rating (GALAP (Galium) [8]; rate 0.0625 kg/ha): 7.0
- GALAP herbicidal rating (GALAP (Galium) [8]; rate 0.1250 kg/ha): 9.0
